Patent publication US20170246267A1, “CHOLINERGIC ANTAGONISM AS AN ADJUNCT TO CANCER THERAPY” (The Trustees of Columbia University in the City of New York, priority 2014, published 2017)
“Also recorded” adds a separate entry of the source. Starred links: 1 amine or outer side, 2 acyl side, 3 side chain; linkers in the order of their positions; H or OH if unused. Positions of bridges follow the written chain, without caps; N, C: chain ends. Non-standard residues stand in square brackets, D forms with d. Residues, ends and D or L forms follow the SMILES beside them. X1 = CC(=O)NC(C(=O)OC(C(C)C)C(N[*:1])C(=O)[*:2])C(O)C(C)C; PhLac = O=C(O)[CH](O)Cc1ccccc1; NMeT = CN[CH](C(=O)O)[CH](C)O; NMeA = CN[CH](C)C(=O)O; NMeDha = C=C(NC)C(=O)O

How the values were obtained:
INS-GAS mice [1] = settings: mouse, in vivo
gastric organoids [2] = assay: In vitro gastric organoid culture with or without neuron co-culture: organoid growth; assay type: cell-based, mouse
gastric organoids [3] = assay: Stem cell marker / Wnt target gene expression in gastric organoids (qRT-PCR); assay type: cell-based, mouse
[4] = tested on: TMK1 gastric cancer cell line; assay: YAP immunoblotting in TMK1 gastric cancer cell line; assay type: cell-based, human; design: changes of YAP phosphorylation after carbachol stimulation: dose or concentration left out as unconfirmed
Experimental: (§1) Similarly, carbachol treatment in Apc-deleted gastric organoids reduced the level of phosphorylated YAP (FIG. 51G). […] Next a human M3R gene-expressing construct was transfected into the M3R-negative AGS cell line. Overexpression of M3R decreased the level of phosphorylated YAP in a Gq-dependent manner, and activated the transcriptional activity of YAP in a luciferase assay (Dupont et al., 2011) (FIGS. 45B, 45C, and 52A).
(§2) Protein lysates were prepared from cells, separated by sodium dodecyl sulfate-polyacrylamide gel electrophoresis (SDS-PAGE), transferred to polyvinylidene difluoride membranes (Millipore). The membrane was probed with primary antibodies (phospho-YAP (Cell Signaling, 1:1000), YAP (Cell Signaling, 1:1000, and β-actin (Sigma, 1:5000) antibodies), and then incubated with the secondary antibody. Immunocomplexes were detected using the enhanced chemiluminescence system (Amersham Biosciences).
(§3) The human cancer cell lines were cultured in RPMI, DMEM, or Ham's F-12 medium supplemented with 10% fetal bovine serum, as described previously (Hayakawa et al., 2011).

[5] = tested on: small cell lung cancer xenografts; settings: reference 50; cited from earlier work
INS-GAS mice [6] = settings: mouse, in vivo; remark: listed apart in the source
[7] = Bethanechol and response to 15 Gy abdominal irradiation (AIR); assay type: in vivo, mouse
[8] = tested on: Dclk1-CreERT; R26-DTA mice; settings: mouse, in vivo
DSS-colitis = assay: Bethanechol in drinking water in DSS-colitis; assay type: in vivo, mouse
human cancer cells = assay: NGF expression in human cancer cells treated with carbachol; assay type: cell-based; settings: TMK-1 cells, 10 mM carbachol for 24 hours
Source text: as §1
(§4) Total RNA was extracted from whole stomach samples from each animal using TRIzol reagent (Invitrogen) or the RNAqueous-micro kit (Ambion) and subjected to first-strand complementary DNA synthesis using the Superscript III cDNA Amplification System (Invitrogen) following the manufacturer's instructions. qRT-PCR was performed using a three-step method, an ABI 7300 system and SYBR green (Roche). The qRT-PCR primer sequences are available upon request. The results were expressed as the copy number of each gene relative to that of Gapdh or GAPDH.
as §3

[9] = tested on: Apc-deleted gastric organoids; assay: YAP immunoblotting in Apc-deleted gastric organoids treated with carbachol; assay type: cell-based, mouse; settings: 1 mM carbachol for 7 days
Source text: as §1
(§5) The harvested mouse stomachs were opened longitudinally and washed with cold PBS. The tissue was chopped into approximately 5 mm pieces, washed with cold PBS, and incubated in 8 mM EDTA in PBS for 60 minutes on ice. The tissue fragments were suspended vigorously in cold 10% FBS using a 10-mL pipette, yielding supernatants enriched in crypts. […]
as §2

gastric organoids [10] = assay: Ngf expression in cultured gastric organoids treated with carbachol; assay type: cell-based, mouse
Source text: In mouse gastric tumors, there was also a specific upregulation of Ngf (almost 20 times higher expression than the normal stomach), and such upregulation was not observed in any other neurotrophins (FIG. 40B). Similar upregulation of Ngf was found in mouse colorectal tumors induced by azoxymethane (AOM) and dextran sodium sulfate (DSS) (FIG. 47B). […] Immunostaining and in situ hybridization confirmed that NGF was expressed within the neoplastic epithelium rather than the stromal compartment (FIGS. 40D and 47C), a finding confirmed by cell sorting and subsequent qPCR (FIGS. 40E and 40F). MNU tumor-derived organoids that are cultured in isolation, separated from their native microenvironment, lost Ngf expression within 7 days. […] Therefore, ACh production, possibly from tuft cells initially but later from innervated nerves with axonogenesis, is at least partly responsible for the neoplastic upregulation of NGF.
as §5, with “crypts. Gland fractions were centrifuged at 900 rpm for 6 minutes at 4° C. and diluted with advanced DMEM/F12 (Invitrogen) containing B27, N2, 1 μM n-Acetylcysteine, 10 mM HEPES, penicillin/streptomycin, and Glutamax (all from Invitrogen).” for “crypts.”
as §4, with “The qRT-PCR primer sequences are available upon request.” left out

[11] = after knockout of tuft cells, bethanechol in the drinking water

**Q.** Which tumor size (INS-GAS mice [1]) does the source give for `O=C1[O][Pt]2([NH][C@@H]3CCCC[C@H]3[NH]2)[O]C1=O` [oxaliplatin] here?
**A.** Its tumor size is “no effect”.

**Q.** Which tumor size (INS-GAS mice [1]) does the source give for `O=c1[nH]cc(F)c(=O)[nH]1` [5-FU, 5-Fluorouracil] here?
**A.** The tumor size was “no effect”.

**Q.** What does the source list for `CC[C@@H]1C(=O)OC[C@@H]1Cc1cncn1C` [pilocarpine]?
**A.** organoid growth (gastric organoids [2]; relative number of organoids at day 10, 100 μM pilocarpine): stimulated; expression of Lgr5, Cd44, and Sox9 (gastric organoids [3]; gastric organoids of M3KO mice): no effects; expression of gastric stem cell markers and Wnt target genes Lgr5, Cd44, and Sox9 (gastric organoids [3]; organoids from WT mice, 10 or 100 μM, day 7, dose-dependent): up-regulation

**Q.** With `C=C1C(=O)NC(C)C(=O)N(C)C(C)C(=O)NC(C(OC(=O)C(NC(C)=O)C(O)C(C)C)C(C)C)C(=O)N(C)C(C(C)OC)C(=O)OC(C)C(NC(C)=O)C(=O)OC(Cc2ccccc2)C(=O)N1C` (centres unmarked) [YM254890] (Ac-T[PhLac][NMeDha]A[NMeA][X1][NMeT](Me); ester 1-C; configuration not given here) as the compound, how does the “changes of YAP phosphorylation after carbachol stimulation” value ([4]; pretreated with YM254890) read?
**A.** Its value is “blocked”.

**Q.** Which results are given for `NC(=O)C(c1ccccc1)(c1ccccc1)[C@@H]1CCN(CCc2ccc3c(c2)CCO3)C1` [darifenacin]?
**A.** growth of small cell lung cancer xenografts [5]: inhibit; cellular proliferation of the tumors (INS-GAS mice [6]): reduced

**Q.** Which survival ([7]; 15 Gy abdominal irradiation, bethanechol as a single agent immediately before or after the radiation) does the source give for `CC(C[N+](C)(C)C)OC(N)=O` (centres unmarked) [bethanechol] here?
**A.** Its survival is “no significant overall impact”.

**Q.** What about the “appearance of the colon after radiation” value ([7]; both pre- and post-radiation treated mice) of the same compound?
**A.** The value was “almost normal appearing”.

**Q.** What about the “improvement of histopathologic score for the colon compared to the controls” value ([7]; day +4 after radiation, both pre- and post-radiation treated mice) of the same compound?
**A.** The value was greater than 65%.

**Q.** And the “loss of proliferation in the stomach by Dclk1+ cell ablation” value [8]?
**A.** The value was “rescue this effect at least in part; also recorded: significantly rescued”.

**Q.** What about the “mucosal / intestinal regeneration” value (DSS-colitis; after ablation of Dclk1+ (tuft) cells, bethanechol in the drinking water) of the same compound?
**A.** Its value is “restored; also recorded: improve”.

**Q.** What about the proliferation (DSS-colitis; [11]) of the same compound?
**A.** The proliferation was “improved”.

**Q.** What about the ulcer length (DSS-colitis; [11]) of the same compound?
**A.** Its ulcer length is “reduction”.

**Q.** What about the DSS colitis (DSS-colitis; bethanechol-treated) of the same compound?
**A.** The DSS colitis was “Significant improvement”.

**Q.** And the “proliferation (Ki67)” value (DSS-colitis; mouse, in vivo)?
**A.** Its value is “increased”.

**Q.** Which YAP activation ([4]; TMK-1 cells treated with NGF) does the source give for “NGF: nerve growth factor, used to treat TMK-1 cells” here?
**A.** The YAP activation was “did not cause”.

**Q.** Which “stimulatory effect of neuron co-culture on gastric organoid growth” value (gastric organoids [2]) does the source give for `CN1[C@@H]2C[C@@H](OC(=O)[C@H](CO)c3ccccc3)C[C@H]1[C@@H]1O[C@@H]12` [scopolamine] here?
**A.** Its value is “inhibited”.

**Q.** For `C[N+](C)(C)CCOC(N)=O` [carbachol], which “level of phosphorylated YAP” value ([4]; 1 mM carbachol) is on record?
**A.** The value was “reduced”.

**Q.** What about the “levels of total YAP” value ([4]; 1 mM carbachol) of the same compound?
**A.** The value was “no significant changes”.

**Q.** And the NGF expression (human cancer cells)?
**A.** Its NGF expression is “significantly upregulated”.

**Q.** What about the “level of phosphorylated YAP” value [9] of the same compound?
**A.** The value was “reduced”.

**Q.** What about the Ngf expression (gastric organoids [10]; MNU tumor-derived organoids cultured in isolation, day 7) of the same compound?
**A.** Its Ngf expression is “upregulated; also recorded: partly reestablished”.

**Q.** What about the Ngf expression (gastric organoids [10]; gastric organoids from WT mice, carbachol for 7 days) of the same compound?
**A.** Its Ngf expression is “upregulated”.

**Q.** What about the NGF expression (gastric organoids [10]; organoids from M3 Receptor Knockout (M3RKO) mice) of the same compound?
**A.** Its NGF expression is “no change”.
